Assay results: patent US20260022143A1, “Cyclic Peptide Inhibitors of IL-23” (JANSSEN PHARMACEUTICA NV, priority 2022, published 2026)
Starred links: 1 amine or outer side, 2 acyl side, 3 side chain; linkers in the order of their positions; H or OH if unused. Positions of bridges follow the written chain, without caps; N, C: chain ends. Non-standard residues stand in square brackets, D forms with d. Residues, ends and D or L forms follow the SMILES beside them. Groups on a side chain read outwards from the residue. *: point of attachment. Me3N+(CH2)2O(CH2)2O(CH2)2CO = C[N+](C)(C)CCOCCOCCC(=O)*; Trp(7-Me) = Cc1cccc2c(C[C@H](N)C(=O)O)c[nH]c12; X1 = CN(CC[C@H](N[*:1])C(=O)[*:2])[*:3]; γGlu = O=C(O)[C@H](CCC(=O)[*:2])N[*:1]; 2Nal = N[C@@H](Cc1ccc2ccccc2c1)C(=O)O; AEF = NCCOc1ccc(C[C@H](N)C(=O)O)cc1; 3Pal = N[C@@H](Cc1cccnc1)C(=O)O; Myristoyl = CCCCCCCCCCCCCC(=O)*; Lys(Me) = CNCCCC[C@H](N)C(=O)O; X7 = COCCOCCOCCOCCOCCOCCC(=O)*; Pen = CC(C)(S)[C@H](N)C(=O)O; Thp = NC1(C(=O)O)CCOCC1; PEG2 = NCCOCCOCCC(=O)O; X3 = C[N+](C)(C)CCCCC*; AEEA = NCCOCCOCC(=O)O; Sar = CNCC(=O)O; X58 = NCCCCC*

Experiment: Exposed Polar Surface Area (EPSA)
Format: physicochemical
Conditions: SFC on Chirex 3014 column; sample 1 mM DMSO stock; read-out: EPSA
Outline: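 SFC retention on a Chirex 3014 (S)-valine/(R)-1-(α-naphthyl)ethylamine column, 35 °C, CO2 with MeOH (20 mM ammonium formate) gradient 5–60% at 20%/min, 14 MPa outlet. Retention times converted to EPSA (Å^2) via linear calibration with 8 standards; samples from 1 mM DMSO stock, run in duplicate.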

CC(=O)N(C)CCCC[C@@H]1NC(=O)[C@H](Cc2c[nH]c3c(C)cccc23)NC(=O)[C@H]([C@@H](C)O)NC(=O)[C@H](CC(=O)N(C)C)NC(=O)[C@@H](NC(=O)CCOCCOCCN)C(C)(C)SSC(C)(C)[C@@H](C(=O)N[C@@H](Cc2ccc(OCCCCCN)cc2)C(=O)N[C@@H](Cc2ccc3ccccc3c2)C(=O)NC2(C(=O)N[C@@H](CCCCN(C)C(C)=O)C(=O)N[C@@H](CC(N)=O)C(=O)N[C@@H](Cc3cccnc3)C(=O)N(C)CC(=O)N(C)C)CCOCC2)NC1=O [compound 529, cPEG3AmCO-Pen(3)-N(N(Me)2)-T-7MeW-K(NMeAc)-Pen(3)-APF-2Nal-THP-K(NMeAc)-N-3Pya-Sar-CON(Me)2] (H-[PEG2][Pen]D(NMe2)T[Trp(7-Me)][Lys(Me)](Ac)[Pen]Y(X58)[2Nal][Thp][Lys(Me)](Ac)N[3Pal][Sar]-NMe2; disulfide 2-7)
EPSA: 161 A^2

COCCOCCOCCOCCOCCOCCC(=O)N(C)CC[C@@H]1NC(=O)[C@H](Cc2c[nH]c3c(C)cccc23)NC(=O)[C@H]([C@@H](C)O)NC(=O)[C@H](CC(=O)N(C)C)NC(=O)[C@@H](NC(C)=O)C(C)(C)SSC(C)(C)[C@@H](C(=O)N[C@@H](Cc2ccc(OCCN)cc2)C(=O)N[C@@H](Cc2ccc3ccccc3c2)C(=O)NC2(C(=O)N[C@@H](CCC(=O)O)C(=O)N[C@@H](CC(N)=O)C(=O)N[C@@H](Cc3cccnc3)C(=O)N(C)CC(=O)N(C)C)CCOCC2)NC1=O [compound 158, MeCO-Pen(3)-N(N(Me)2)-T-7MeW-Dab(NMeCOmPEG6)-Pen(3)-AEF-2Nal-THP-E-N-3Pya-Sar-CON(Me)2] (Ac-[Pen]D(NMe2)T[Trp(7-Me)][X1](X7)[Pen][AEF][2Nal][Thp]EN[3Pal][Sar]-NMe2; disulfide 1-6)
EPSA: 160 A^2

CCCCCCCCCCCCCC(=O)N[C@@H](CCC(=O)NCCOCCOCC(=O)NCCOCCOCC(=O)NCCCC[C@H](NC(=O)C1(NC(=O)[C@H](Cc2ccc3ccccc3c2)NC(=O)[C@H](Cc2ccc(OCCCCC[N+](C)(C)C)cc2)NC(=O)[C@H]2NC(=O)[C@H](CCCCN(C)C(C)=O)NC(=O)[C@H](Cc3c[nH]c4c(C)cccc34)NC(=O)[C@H]([C@@H](C)O)NC(=O)[C@H](CC(=O)N(C)C)NC(=O)[C@@H](NC(=O)[C@@H](CCCCNC(=O)COCCOCCNC(=O)COCCOCCNC(=O)CC[C@H](NC(=O)CCCCCCCCCCCCC)C(=O)O)NC(=O)CCOCCOCC[N+](C)(C)C)C(C)(C)SSC2(C)C)CCOCC1)C(=O)N[C@@H](CC(N)=O)C(=O)N[C@@H](Cc1cccnc1)C(=O)N(C)CC(=O)N(C)C)C(=O)O [compound 395, cPEG3aCO-k(PEG2PEG2gEC14)-Pen(3)-N(N(Me)2)-T-7MeW-K(NMeAc)-Pen(3)-TMAPF-2Nal-THP-K(PEG2PEG2gEC14)-N-3Pya-Sar-CON(Me)2] ({Me3N+(CH2)2O(CH2)2O(CH2)2CO}-[dK]([AEEA-AEEA-γGlu-Myristoyl])[Pen]D(NMe2)T[Trp(7-Me)][Lys(Me)](Ac)[Pen]Y(X3)[2Nal][Thp]K([AEEA-AEEA-γGlu-Myristoyl])N[3Pal][Sar]-NMe2; disulfide 2-7)
EPSA: 189 A^2

CCCCCCCCCCCCCC(=O)N[C@@H](CCC(=O)NCCOCCOCC(=O)NCCOCCOCC(=O)N[C@@H](COCCOCC[N+](C)(C)C)C(=O)N[C@@H]1C(=O)N[C@@H](CC(=O)N(C)C)C(=O)N[C@@H]([C@@H](C)O)C(=O)N[C@@H](Cc2c[nH]c3c(C)cccc23)C(=O)N[C@@H](CCCCN(C)C(C)=O)C(=O)N[C@H](C(=O)N[C@@H](Cc2ccc(OCCOCCOCC[N+](C)(C)C)cc2)C(=O)N[C@@H](Cc2ccc3ccccc3c2)C(=O)NC2(C(=O)N[C@@H](CCCCN(C)C(C)=O)C(=O)N[C@@H](CC(N)=O)C(=O)N[C@@H](Cc3cccnc3)C(=O)N(C)CC(=O)N(C)C)CCOCC2)C(C)(C)SSC1(C)C)C(=O)O (relative stereo) [compound 367, C14gEPEG2PEG2CO-APEG2Ser(S*)-Pen(3)-N(N(Me)2)-T-7MeW-K(NMeAc)-Pen(3)-APEG3F-2Nal-THP-K(NMeAc)-N-3Pya-Sar-CON(Me)2]
EPSA: 162 A^2
